Tests used:
human GPR40 = target: T1, human GPR40 (Homo sapiens, UniProt O14842, R211H); assay: Measurement of GPR40 agonistic activity (intracellular calcium, FLIPR, CHO cell line expressing human GPR40); type: cell-based; settings: change in fluorescence intensity one minute after measurement
T1 construct: expressed in transfected cells; host or cells: CHO dhfr- cells stably transfected with plasmid pEF-BOS-dhfr-GPR40
Text: Test Method 1: Measurement of GPR40 Agonistic Activity i) Cloning of Human GPR40
In accordance with procedures as described below, the full-length sequence of GPR40 was obtained by a polymerase chain reaction (PCR) to set human genomic DNA (Clontech) as a template.
Oligonucleotide which consists of a base sequence represented by SEQ ID NO. 1 was used as a forward primer, and oligonucleotide which consists of a base sequence represented by SEQ ID NO. 2 was used as a reverse primer. To each 5′ terminus of the forward primer and the reverse primer described above, a base sequence including the XbaI recognition site is attached. In the PCR, using Taq DNA polymerase (Ex Taq DNA polymerase; TAKARA BIO INC.), a cycle consisting of 94° C. (15 sec)/55° C. (30 sec)/72° C. (1 min) was repeated 30 times in the presence of 5% DMSO. As a result, the DNA fragment of about 0.9 kbp was amplified. This DNA fragment was digested with XbaI, followed by inserting into the XbaI site of plasmid pEF-BOS-dhfr (Nucleic Acids Research, 18, 5322, 1990) to obtain plasmid pEF-BOS-dhfr-GPR40.
The base sequence of GPR40 gene in plasmid pEF-BOS-dhfr-GPR40 was decided by a dideoxy terminator method using a DNA sequencer (ABI377 DNA Sequencer; Applied Biosystems). The base sequence of GPR40 gene was the same with the base sequence represented by SEQ ID NO. 3. The base sequence represented by SEQ ID NO. […] 4 […]
ii) Preparation of GPR40 Stable Expression Cell
A CHO dhfr cell (CHO cell deleting a dihydrofolate reductase (dhfr) gene) was used as a cell in which GPR 40 protein was expressed. In addition, the plasmid pEF-BOS-dhfr-GPR40 obtained in the above i) was used as an expressing plasmid to express GPR40 protein. To a 6 well plate (Asahi Techno Glass Corp.), the CHO dhfr cells were seeded to become 80 to 90% confluent in an aMEM medium having 10% fetal calf serum (FCS), and cultivated overnight. Then, 2 μg of plasmid pEF-BOS-dhfr-GPR40 per well was transferred generetically thereto using a transfection reagent (Lipofectamine 2000; Invitrogen Corporation). After cultivating for 24 hours subsequent to the gene transfer, the cell were diluted and reseeded. On this occasion, the αMEM medium having 10% FCS was changed for an αMEM medium having 10% FCS and no nucleic acid. After 20 days cultivation, formed cell colonies were collected respectively and cultivated, thereby obtaining CHO cells stably expressing GPR40. Among these, cells high-reactive to an oleic acid and a linoleic acid which were intrinsic ligands were selected. […]
iii) Measurement of GPR40 Agonistic Activity
The GPR40 agonistic activity was measured with fluctuation of the intracellular calcium concentration as an index by FLIPR (registered trademark, Molecular Devices Corporation). Hereinafter, test methods will be described.
A CHO cell line expressing human GPR40 was seeded with 6×10^3 per well to a 384-well black plate (Becton, Dickinson and Company), and cultivated in a CO2 incubator overnight. For a luminescent pigment, a Calcium-3 assay kit (Molecular Devices Corporation) was used, and dissolved in 10 ml of a HBSS-HEPES buffer (PH7.4, 1×HBSS, 20 mM HEPES, Invitrogen Corporation) for a bottle. 35.68 mg of probenecid (Sigma) was dissolved in 250 μl of 1M NaOH, and then 250 μl of a HBSS-HEPES buffer was added to blend. 16 ml of a HBSS-HEPES buffer, 640 μl of the luminescent pigment and 32 μl of probenecid were added to blend for a solution of the luminescent pigment per plate. The medium of the plate was removed, 40 μl of the solution of the luminescent pigment per well was dispensed, followed by incubating at room temperature for 2 hours. A compound to be inspected was dissolved in DMSO, and diluted with a HBSS-HEPES buffer. A reaction was initiated by 10 μl of dispensation, the fluctuation of the intracellular calcium concentration was measured by FLIPR. An EC50 value of the compound to be inspected was calculated from the dose-response curve of change in fluorescence intensity one minute after measurement.

normal mice = assay: Single oral glucose tolerance test on normal mice; type: in vivo; settings: Mus musculus; for inhibition in vivo at 10 mg/kg: 0.5 h, read-out: Reduction rate of blood glucose level (%); for minimal effective dose: read-out: MED
Experimental: Test Method 3: Single Oral Glucose Tolerance Test on Normal Mice
The anti-hyperglycemic action after glycemic load of the compound to be inspected was examined using normal mice. Hereinafter, the test method will be described.
Male ICR mice which was preparedly reared for one week (6-week-old) was fasted overnight, and used as an animal to be inspected. A compound to be inspected was 0.5% methylcellulose suspension, and the suspension was orally administered 30 minutes before the glucose (2 g/kg) load. With regard to some compounds to be inspected, prior blood drawing was performed (0 min value), and blood glucose levels were measured at 5, 15, 30, 60 and 120 minutes later glucose load when the compound to be inspected was orally administered. A control group was given 0.5% methylcellulose. The evaluation was carried out in the following manner. (Evaluation 1) The reduction rate of blood glucose levels after glucose loading (%) with respect to the control group was calculated at a point of glucose load which is 30 minutes after the oral administration of 10 mg/kg of the compound to be inspected. […] Ex represents example compound numbers.
(Evaluation 2) The reduction rate of blood glucose levels after glucose loading (%) with respect to the control group was calculated at a point of glucose load which is 30 minutes after the oral administration of 10, 3, 1, 0.3 or 0.1 mg/kg of the compound to be inspected. […] Ex represents example compound numbers. In addition, MED describing “below” in Table 3 means that a test was not carried out due to less than dose described.
The area under the blood concentration-time curve (AUC) of blood glucose levels for 0 to 120 minute(s) was calculated from the blood glucose levels before the blood drawing, and the blood glucose levels at 5, 15, 30, 60, and 120 minutes after the glucose load when 30, 10, 3, 1 or 0.3 mg/kg of the compound to be inspected was orally administered.

T1 sequence (O14842 whole entry R211H): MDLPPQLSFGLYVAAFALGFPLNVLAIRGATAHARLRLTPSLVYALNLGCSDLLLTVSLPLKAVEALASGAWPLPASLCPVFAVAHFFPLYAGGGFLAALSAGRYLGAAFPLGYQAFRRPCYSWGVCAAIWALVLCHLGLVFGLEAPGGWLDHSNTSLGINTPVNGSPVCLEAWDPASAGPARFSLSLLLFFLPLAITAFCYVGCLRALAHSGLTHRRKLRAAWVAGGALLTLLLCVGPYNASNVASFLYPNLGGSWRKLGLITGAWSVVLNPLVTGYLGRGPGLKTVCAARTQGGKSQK

SMILES	EC50 (human GPR40)	inhibition in vivo at 10 mg/kg (normal mice)	minimal effective dose (normal mice)
Cc1cc(OC[C@@H](O)CO)cc(C)c1-c1cccc(COc2ccc(Cn3oc(=O)[n-]c3=O)cc2)c1C.[Na+] [Example 7]	410 nM	30%	10 mg/kg
Cc1cc(OCCCNC(=O)C2CC2)cc(C)c1-c1cccc(COc2ccc(Cn3oc(=O)[n-]c3=O)cc2)c1C.[Na+] [Example 21]	600 nM	26%	3 mg/kg
Cc1cc(OC[C@H](O)CO)cc(C)c1-c1cccc(COc2ccc(Cn3oc(=O)[n-]c3=O)cc2)c1C.[Na+] [Example 26]	410 nM	27%	10 mg/kg
Cc1c(COc2ccc(Cn3oc(=O)[n-]c3=O)cc2)cccc1-c1cccc(OCCC(C)(C)O)c1C.[Na+] [Example 27]	230 nM	42%	1 mg/kg
Cc1cc(-c2cccc(COc3ccc(Cn4oc(=O)[n-]c4=O)cc3)c2C)c(C)cc1OCCC(C)(C)O.[Na+] [Example 31]	69 nM	50%	1 mg/kg
Cc1c(COc2ccc(Cn3oc(=O)[n-]c3=O)cc2)cccc1-c1ccc(OCCC(C)(C)O)c(C)c1C.[Na+] [Example 32]	68 nM	47%	1 mg/kg
Cc1cc(OCC[C@@H](C)O)cc(C)c1-c1cccc(COc2ccc(Cn3oc(=O)[n-]c3=O)cn2)c1C.[Na+] [Example 44]	190 nM	34%	< 0.3 mg/kg
Cc1cc(OCC[C@H](C)O)cc(C)c1-c1cccc(COc2ccc(Cn3oc(=O)[n-]c3=O)cn2)c1C.[Na+] [Example 45]	280 nM	35%	1 mg/kg
COC[C@@H](O)COc1cc(C)c(-c2cccc(COc3ccc(Cn4oc(=O)[n-]c4=O)cc3)c2C)c(C)c1.[Na+] [Example 56]	820 nM	29%	3 mg/kg
Cc1cc(OCCC(C)(C)O)nc(C)c1-c1cccc(COc2ccc(Cn3oc(=O)[n-]c3=O)cc2)c1C.[Na+] [Example 60]	160 nM	45%	< 3 mg/kg
Cc1cc(-c2cccc(COc3ccc(Cn4oc(=O)[n-]c4=O)cc3)c2C)c(C)cc1OCCO.[Na+] [Example 63]	380 nM	22%	< 1 mg/kg
Cc1cc(OC[C@@H](O)CO)cc(C)c1-c1cccc(CNc2ccc(Cn3oc(=O)[n-]c3=O)cc2)c1C.[Na+] [Example 68]	22 nM	23%	3 mg/kg
Cc1cc(OC[C@H](O)CO)cc(C)c1-c1cccc(CNc2ccc(Cn3oc(=O)[n-]c3=O)cc2)c1C.[Na+] [Example 69]	69 nM	34%	1 mg/kg
Cc1cc(OCCO)cc(C)c1-c1cccc(CNc2ccc(Cn3oc(=O)[n-]c3=O)cc2)c1C.[Na+] [Example 70]	70 nM	31%	10 mg/kg
CO[C@@H](CO)COc1cc(C)c(-c2cccc(COc3ccc(Cn4oc(=O)[n-]c4=O)cc3)c2C)c(C)c1.[Na+] [Example 74]	320 nM	23%	3 mg/kg
Cc1cc(OCCO)cc(C)c1-c1cccc(CNc2ccc(Cn3oc(=O)[n-]c3=O)cn2)c1C.[Na+] [Example 80]	250 nM	26%	10 mg/kg
Cc1cc(OCC[C@@H](C)O)nc(C)c1-c1cccc(CNc2ccc(Cn3oc(=O)[n-]c3=O)cc2)c1C.[Na+] [Example 81]	160 nM	33%	< 3 mg/kg
Cc1cc(OCC[C@@H](C)O)nc(C)c1-c1cccc(COc2ccc(Cn3oc(=O)[n-]c3=O)cc2)c1C.[Na+] [Example 84]	280 nM	35%	< 3 mg/kg
Cc1cc(OCCO)c(F)cc1-c1cccc(CNc2ccc(Cn3oc(=O)[n-]c3=O)cc2)c1C.[Na+] [Example 85]	420 nM	24%	3 mg/kg
Cc1cc(-c2cccc(CNc3ccc(Cn4oc(=O)[n-]c4=O)cc3)c2C)c(C)nc1OCCO.[Na+] [Example 89]	110 nM	25%	3 mg/kg
Cc1cc(OCCO)c(F)cc1-c1cccc(COc2ccc(Cn3oc(=O)[n-]c3=O)cc2)c1C.[Na+] [Example 94]	640 nM	39%	3 mg/kg
Cc1cc(-c2cccc(CNc3ccc(Cn4oc(=O)[n-]c4=O)cc3)c2C)c(C)cc1OC[C@@H](O)CO.[Na+] [Example 96]	190 nM	23%	10 mg/kg
Cc1cc(-c2cccc(CNc3ccc(Cn4oc(=O)[n-]c4=O)cc3)c2C)c(C)cc1OC[C@H](O)CO.[Na+] [Example 97]	190 nM	29%	10 mg/kg
Cc1cc(OCC[C@@H](O)CO)cc(C)c1-c1cccc(CNc2ccc(Cn3oc(=O)[n-]c3=O)cc2)c1C.[Na+] [Example 101]	230 nM	39%	3 mg/kg
Cc1cc(OCC[C@H](O)CO)cc(C)c1-c1cccc(CNc2ccc(Cn3oc(=O)[n-]c3=O)cc2)c1C.[Na+] [Example 102]	230 nM	48%	10 mg/kg
Cc1c(CNc2ccc(Cn3oc(=O)[nH]c3=O)cc2)cccc1-c1cccc(OCCO)c1C [Example 107]	93 nM		
CCC(=O)NCCCOc1cc(C)c(-c2cccc(COc3ccc(Cn4oc(=O)[n-]c4=O)cc3)c2C)c(C)c1.[Na+] [Example 119]	810 nM	26%	3 mg/kg
